Experimental data from the supplement of paper PMC10331698.
± gives the standard deviation of the averaged measurements.

Assays:
Assay in all cases: level (log10 ratio to DMSO vehicle control); higher = higher biomarker level / cell amount than vehicle control
[1] = compound: C=C(C)C(=O)OCCC(F)(F)C(F)(F)C(F)(F)C(F)(F)C(F)(C(F)(F)F)C(F)(F)F [(Perfluoro-5-methylhexyl)ethyl 2-methylprop-2-enoate]; details: in DMSO
Procedure: (§1)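 BioMAP Diversity Plus panel of 12 human primary cell co-culture systems (3C, 4H, LPS, SAg, BT, BF4T, BE3C, CASM3C, HDF3CGF, KF3CT, MyoF, Mphg). Compounds were added 1 h before stimulation and left for 24 h (MyoF 48 h; BT 72 h for soluble read-outs or 6 d for IgG). Biomarkers were read by ELISA, cytotoxicity by SRB, PBMC viability and proliferation by Alamar Blue. Each well value was divided by the mean of 8 DMSO control wells on the same plate and log10 transformed; duplicate blinded samples were tested at 4 concentrations.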

Pentafluoropropionamide = compound: NC(=O)C(F)(F)C(F)(F)F [Pentafluoropropionamide]; details: in DMSO
Procedure: as §1

Perfluoroheptanoic acid = compound: O=C(O)C(F)(F)C(F)(F)C(F)(F)C(F)(F)C(F)(F)C(F)(F)F [Perfluoroheptanoic acid]; details: in DMSO
Procedure: as §1

[2] = compound: O=C(O)C(F)(F)C(F)(F)C(F)F [4H-Perfluorobutanoic acid]; details: in DMSO
Procedure: as §1

Perfluoropropanoic acid = compound: O=C(O)C(F)(F)C(F)(F)F [Perfluoropropanoic acid]; details: in DMSO
Procedure: as §1

[3] = compound: OCC(F)(F)OC(F)(F)C(F)(F)OC(F)(F)CO [1H,1H,8H,8H-Perfluoro-3,6-dioxaoctane-1,8-diol]; details: in DMSO
Procedure: as §1

[4] = compound: OCCC(F)(F)C(F)(F)C(F)(F)C(F)(F)C(F)(F)C(F)(F)F [6:2 Fluorotelomer alcohol]; details: in DMSO
Procedure: as §1

[5] = compound: OCCCC(F)(F)C(F)(F)C(F)(F)C(F)(F)C(F)(F)C(F)(F)C(F)(F)F [7:3 Fluorotelomer alcohol]; details: 6700 nM; in DMSO
Procedure: as §1

Test System	level (log10) ([1]; 6700 nM)	level (log10) ([1]; 20000 nM)	level (log10) (Pentafluoropropionamide; 6700 nM)	level (log10) (Pentafluoropropionamide; 20000 nM)	level (log10) (Pentafluoropropionamide; 60000 nM)	level (log10) (Perfluoroheptanoic acid; 6700 nM)	level (log10) (Perfluoroheptanoic acid; 20000 nM)	level (log10) (Perfluoroheptanoic acid; 60000 nM)	level (log10) ([2]; 6700 nM)	level (log10) ([2]; 20000 nM)	level (log10) ([2]; 60000 nM)	level (log10) (Perfluoropropanoic acid; 6700 nM)	level (log10) (Perfluoropropanoic acid; 20000 nM)	level (log10) (Perfluoropropanoic acid; 60000 nM)	level (log10) ([3]; 6700 nM)	level (log10) ([3]; 20000 nM)	level (log10) ([3]; 60000 nM)	level (log10) ([4]; 6700 nM)	level (log10) ([4]; 20000 nM)	level (log10) [5]
BE3C:CD87/uPAR	0.0035 ± 0.016	0.0165 ± 0.035	0.0115 ± 0.042	-0.025 ± 0.0057	-0.0145 ± 0.022	-0.0275 ± 0.026	-0.049 ± 0.033	-0.05 ± 0.054	-0.003 ± 0.013	-0.0175 ± 0.019	0.0015 ± 0.005	-0.018 ± 0.0085	-0.026 ± 0.0085	0.01 ± 0.0014	-0.001 ± 0.0099	0.0265 ± 0.016	-0.0125 ± 0.005	0.005 ± 0.031	-0.0155 ± 0.012	0.0185 ± 0.03
BE3C:CXCL8/IL-8	-0.0065 ± 0.0092	-0.008 ± 0.024	0.016 ± 0.028	0.0125 ± 0.074	0.0445 ± 0.044	0.033 ± 0.041	0.008 ± 0.042	0.0205 ± 0.1	0.015 ± 0.099	0.0165 ± 0.044	0.0695 ± 0.071	-0.0355 ± 0.083	0.001 ± 0.083	0.0605 ± 0.13	0.0075 ± 0.005	0.001 ± 0.041	-0.012 ± 0.045	0.01 ± 0.048	-0.0085 ± 0.021	0.006 ± 0.0028
BE3C:CXCL9/MIG	0.009 ± 0.013	0.008 ± 0.0071	0.004 ± 0.0028	-0.0015 ± 0.011	0.0075 ± 0.0035	0 ± 0.0014	0.0065 ± 0.011	0.012 ± 0.017	-0.0015 ± 0.011	0.0085 ± 0.022	0.0135 ± 0.0092	-0.0005 ± 0.016	0.0035 ± 0.0078	0.0165 ± 0.023	0.0015 ± 0.0064	-0.0025 ± 0.0035	0.0035 ± 0.005	0.01 ± 0.0057	0.001 ± 0.0057	-0.0015 ± 0.0021
BE3C:CXCL10/IP-10	0.032 ± 0.031	0.022 ± 0.021	-0.008 ± 0.0085	0 ± 0.0028	-0.0015 ± 0.0064	0.0055 ± 0.022	0.0065 ± 0.0092	0.0045 ± 0.011	-0.006 ± 0.021	-0.001 ± 0.0099	0.017 ± 0.021	-0.0125 ± 0.019	0.0035 ± 0.022	0.014 ± 0.025	0.004 ± 0.02	0.01 ± 0.0071	0.0105 ± 0.016	-0.0035 ± 0.005	0.006 ± 0.0028	0.011 ± 0.024
BE3C:CXCL11/I-TAC	0.005 ± 0.0099	0.0105 ± 0.0092	-0.0065 ± 0.0092	-0.0055 ± 0.018	-0.006 ± 0.0071	0.0065 ± 0.015	-0.011 ± 0.0042	-0.003 ± 0.0042	-0.0015 ± 0.0064	0.008 ± 0.014	0.031 ± 0.011	0.007 ± 0.0071	0.013 ± 0.014	0.029 ± 0.033	0.007 ± 0.0014	0.0185 ± 0.0021	0.009 ± 0.014	-0.017 ± 0.0028	-0.022 ± 0.0057	0.022 ± 0.017
BE3C:EGFR	-0.0065 ± 0.011	0.009 ± 0.014	-0.019 ± 0.016	-0.0095 ± 0.015	-0.0235 ± 0.04	-0.0065 ± 0.0078	0.0045 ± 0.0021	-0.0005 ± 0.033	-0.0135 ± 0.011	-0.0085 ± 0.0064	0.032 ± 0.025	-0.0175 ± 0.036	0.0065 ± 0.012	0.035 ± 0.035	0.0085 ± 0.012	-0.0025 ± 0.021	-0.0095 ± 0.0064	0.004 ± 0.051	-0.0025 ± 0.049	0.0115 ± 0.015
BE3C:HLA-DR	-0.0115 ± 0.0078	-0.0045 ± 0.0078	-0.0115 ± 0.0078	0.0045 ± 0.0064	0.0055 ± 0.026	-0.009 ± 0.0014	-0.004 ± 0.0014	0.002 ± 0.027	-0.023	-0.022 ± 0.0085	-0.0005 ± 0.028	-0.026 ± 0.0085	-0.012 ± 0.024	0.016 ± 0.016	-0.0065 ± 0.025	-0.009 ± 0.021	-0.008 ± 0.0042	0.003	0.005 ± 0.02	0.0045 ± 0.029
